# Data from US6787315B2, “Methods for identifying ligand binding sites in a biomolecule” (priority 2001, dated 2004).
# Key:
# [1] = tested on: modified 16S RNA (5′-PS-A1492; 3′-phosphorothioate at A1492, C12O6 PEG mass tag); assay: ESI-FT-ICR MS ligand binding to 27-mer 16S RNA modified at A1492; design: species or system E. coli
# Experimental: (§1) The following examples illustrate preferred embodiments of the present invention using mass spectrometry. Experiments were performed using a 7.0 Tesla Fourier transform ion cyclotron resonance (FT-ICR) mass spectrometer with an electrospray ionization source operating in the negative mode. A −3000 V difference was employed between the spray tip and the inlet capillary to generate the electrospray. Samples were introduced at a flow rate of 1.5 uL/min using a Harvard syringe pump and a 50 uL glass syringe. The desolvation of the electrospray droplets was aided by a flow of countercurrent gas at 1 L/min. Ions were accumulated for 1.0 sec in an intermediate hexapole ion storage region at 1.0×10^−5 mbar. Following transfer to the FT-ICR analysis cell, the image current was measured over a mass range of 500-4000 m/z. Typically, a total of 32 transients containing 512 kbytes were summed prior to Fourier transformation. The m/z values were calibrated on the signal from the [M-5H^+]^5− charge state of the free RNA at 1726.509.
# An aqueous solution containing 100 mM ammonium acetate buffer (pH 7.0), 33% isopropyl alcohol, gentamicin (1 μM), 16S RNA (5 μM) and a modified 16S RNA (5.5 μM) was prepared. […] The peaks from the complexes formed from the lowest mass form of gentamicin were integrated and ion abundances determined. Fractions of 16S+genta and 5′-PS-A1492+genta complexes were determined to be 0.121 and 0.118±0.01% for the free 16S RNA and 5′-PS-A1492 RNA, respectively.
# An aqueous solution containing 100 mM ammonium acetate buffer (pH 7.0), 33% isopropyl alcohol, ribostamycin (1 μM), 16S RNA (5 μM) and a modified 16S RNA (5.5 μM) was prepared. […] The peaks from the complexes formed between ribostamycin and the RNA were integrated and ion abundances determined. Fractions of 16S+ribost and 5′-PS-A1492+ribost complexes were determined to be 0.101 and 0.082±0.005% for the free 16S RNA and 5′-PS-A1492 RNA, respectively.
# [2] = tested on: 16S RNA (27-mer RNA model of the prokaryotic A-site 16S RNA); assay: ESI-FT-ICR MS ligand binding to unmodified 27-mer 16S RNA; design: species or system E. coli
# Experimental: as §1
# An aqueous solution containing 100 mM ammonium acetate buffer (pH 7.0), 33% isopropyl alcohol, gentamicin (2 μM, present in three forms), 16S RNA (2.5 μM) and a modified 16S RNA (2.5 μM) was prepared. Modified 27-mer 16S RNA contained a 5-iodouridine residue at position 13 in the UUCG tetraloop (See FIG. 1). The resulting mass spectra (see FIG. 3, upper spectrum) contained identifiable peaks corresponding to free 16S RNA (m/z 1726.5), free modified 16S RNA(5IUtetra; m/z 1750.7), 16S complexed with the three forms of gentamicin present in the sample (16S+genta; m/z 1816-1825), and 16S(5IUtetra) complexed with the three forms of gentamicin (5IUtetra+genta; m/z 1841-1849). The peaks were integrated and ion abundances determined. Fractions of 16S+genta and 5IUtetra+genta complexes were determined to be 70.4% and 68.2±1% for the free 16S RNA and 5IUtetraRNA, respectively.
# An aqueous solution containing 100 mM ammonium acetate buffer (pH 7.0), 33% isopropyl alcohol, gentamicin (2 μM), 16S RNA (2.5 μM) and a modified 16S RNA (2.5 μM) was prepared. Modified 27-mer 16S RNA contained a 5-iodouridine residue at position U1406 at the position of a U-U mismatch base pair (E. coli numbering system). The resulting mass spectra (see FIG. 3, lower spectrum) contained identifiable peaks corresponding to free 16S RNA (m/z 1726.5), free modified 16S RNA(5IU1406; m/z 1750.7), 16S complexed with the three forms of gentamicin present in the sample (16S+genta; m/z 1816-1825), and 16S(5IU1406) complexed with the three forms of gentamicin (5IU1406+genta; m/z 1841-1849). The peaks were integrated and ion abundances determined. Fractions of 16S+genta and 5IU1406+genta complexes were determined to be 66.8% and 28.1±1% for the free 16S RNA and 5IU1406 RNA, respectively.
# An aqueous solution containing 50 mM ammonium acetate buffer (pH 7.0), 33% isopropyl alcohol, ribostamycin (2.5 μM), 16S RNA (2.5 μM) and a modified 16S RNA (2.5 μM) was prepared. […] The resulting mass spectra (see FIG. 4) contained identifiable peaks corresponding to free 16S RNA (m/z 1726.5), free modified 16S RNA(5IU 1495; m/z 1821.4), 16S complexed with ribostamycin present in the sample (16S+ribost; m/z 1818.6), and 16S(5IU1495) complexed with ribostamycin (5IU1495+ribost; m/z 1912.3). The peaks were integrated and ion abundances determined. Fractions of 16S+ribost and 5IU1495+ribost complexes were determined to be 67.6% and 29.9±1% for the free 16S RNA and 5IU1495 RNA, respectively.
# An aqueous solution containing 100 mM ammonium acetate buffer (pH 7.0), 33% isopropyl alcohol, gentamicin (1 μM), 16S RNA (5 μM) and a modified 16S RNA (5.5 μM) was prepared. Modified 27-mer 16S RNA contained a 3′-phosphorothioate residue at position G1491 at the position of a G-C base pair (E. coli numbering system) and a C12O6 PEG mass tag off the 5′-hydroxyl group. Mass spectra were obtained using the standard protocol described above. […]
# [3] = Example 6: gentamicin 1 μM (lowest mass form integrated), 16S RNA 5 μM with 5′-PS-A1492 RNA 5.5 μM, 100 mM ammonium acetate pH 7.0, 33% isopropyl alcohol
Compound,Amount of 5′-PS-A1492+ribost as % of the amount of 16S+ribost ([1]; Example 7: ribostamycin 1 μM) [%],"Fraction of 16S+ribost complex ([2]; Example 3: ribostamycin 2.5 μM, 16S RNA 2.5 μM with 5IU1495 RNA 2.5 μM, 50 mM ammonium acetate pH 7.0, 33% isopropyl alcohol) [%]","Fraction of 16S+ribost complex ([2]; Example 5: ribostamycin 1 μM, 16S RNA 5 μM with 5′-PS-G1491 RNA 5.5 uM, 100 mM ammonium acetate pH 7.0, 33% isopropyl alcohol) [%]","Fraction of 16S+ribost complex ([2]; Example 7: ribostamycin 1 μM, 16S RNA 5 μM with 5′-PS-A1492 RNA 5.5 μM, 100 mM ammonium acetate pH 7.0, 33% isopropyl alcohol) [%]",Amount of 5′-PS-A1492+genta as % of the amount of 16S+genta ([1]; Example 6: gentamicin 1 μM) [%],"Fraction of 5′-PS-A1492+genta complex [1, 3]","Fraction of 16S+genta complex ([2]; Example 1: gentamicin 2 μM (three forms), 16S RNA 2.5 μM with 5IUtetra RNA 2.5 μM, 100 mM ammonium acetate pH 7.0, 33% isopropyl alcohol) [%]","Fraction of 16S+genta complex ([2]; Example 2: gentamicin 2 μM, 16S RNA 2.5 μM with 5IU1406 RNA 2.5 μM, 100 mM ammonium acetate pH 7.0, 33% isopropyl alcohol) [%]","Fraction of 16S+genta complex ([2]; Example 4: gentamicin 1 μM (lowest mass form integrated), 16S RNA 5 μM with 5′-PS-G1491 RNA 5.5 μM, 100 mM ammonium acetate pH 7.0, 33% isopropyl alcohol) [%]","Fraction of 16S+genta complex [2, 3] [%]"
NC[C@H]1O[C@H](O[C@H]2[C@H](O[C@@H]3O[C@H](CO)[C@@H](O)[C@H]3O)[C@@H](O)[C@H](N)C[C@@H]2N)[C@H](N)[C@@H](O)[C@@H]1O [ribostamycin],80,67.6,0.105,0.101,–,–,–,–,–,–
gentamicin,–,–,–,–,97,0.118±0.01 fraction (0–1),70.4,66.8,0.127,0.121
